According to patent publication US20040037856A1, “Use of compounds containing a thio-ether, sulphoxide or sulphone function as cosmetic anti-pollution agent” (priority 2000, published 2004):

How the values were obtained:
[1] = system: human keratinocytes; experiment: Ozone-induced lipid hydroperoxides (DCFH-DA fluorescence) in monolayer culture of human keratinocytes; type: cell-based; details: for % fluorescence observed ± SEM in the presence of CMC, relative to the unprotected controls: 24 h pretreatment with CMC 0.5 mg/ml, CMC 1 mg/ml in PBS during exposure (b102 says 200 μM), controls = 100%, n=4
Experimental: Ozone has the capacity to oxidize cell constituents, especially generating carbonylated proteins and lipid hydroperoxides. Quantification of the lipid hydroperoxides is one means of measuring the oxidative stress induced by exposing skin tissue to this pollutant. A decrease in their content indicates a protective effect. The study was performed on a monolayer culture of human keratinocytes. The cells are inoculated on D-3 into 48-well dishes at a rate of 25 000 cells/cm^2 in 500 μl of culture medium. The incubations are performed at 37° C., 5% CO2 under a humid atmosphere. The cells were pretreated for 24 hours with CMC (0.5 mg/ml, half-maximal dose that is nontoxic to the cells, dissolved in the culture medium). Hydroperoxides constitute an intracellular stress marker. They are detected and quantified by means of a fluorescence technique (Lebel C. P., Ischiropoulos H. and Bondy S. C. (1992) Evaluation of the probe 2,7-dichlorofluorescin as an indicator of Reactive Oxygen Species formation and oxidative stress. Chem. Res. Toxicol.; 5: 227-231). In the presence of intracellular hydroperoxides and peroxidases, DCFH is oxidized to fluorescent 2,7-dichlorofluorescein (DCF). The cells, pretreated for 24 hours with CMC, are then washed with PBS buffer and placed in contact for 30 minutes with a solution of DCFH-DA (500 μl/well), prepared in the culture medium to a concentration of 320 μM. The cells are again rinsed with PBS buffer and then placed in contact with a CMC solution at a concentration of 1 mg/ml in PBS (100 μl/well). They are then exposed to ozone (1 ppm), under a humid atmosphere, in an incubator set at 37° C. The formation of fluorescent DCF (excitation filter at 485 nm and emission filter at 530 nm) resulting from the production of hydroperoxides is measured after different times of exposure to ozone: 0, 5, 10 and 20 minutes. Toxicity of ozone toward human keratinocytes in culture, in the absence and presence of S-carboxymethylcysteine at a concentration of 200 μM, as a function of the exposure time (n=4). For each time, the fluorescence values of the unprotected controls are set at 100%. The results in the presence of CMC are then expressed relative to this control value. […] This protection is at a maximum from 5 minutes of exposure onward (67.7% drop in induced stress). It is still significant after 20 minutes of exposure (53.5% drop in induced stress) relative to the unprotected controls.

[2] = system: human keratinocytes; experiment: Toxicity of CMC to the keratinocytes (nontoxic dose); type: cell-based; details: dissolved in the culture medium, 24 hours
Experimental: The study was performed on a monolayer culture of human keratinocytes. The cells are inoculated on D-3 into 48-well dishes at a rate of 25 000 cells/cm^2 in 500 μl of culture medium. The incubations are performed at 37° C., 5% CO2 under a humid atmosphere.
The cells were pretreated for 24 hours with CMC (0.5 mg/ml, half-maximal dose that is nontoxic to the cells, dissolved in the culture medium).

## N[C@@H](CSCC(=O)O)C(=O)O [CMC, S-carboxymethylcysteine]
[1]; 5 min. of contact with ozone (1 ppm)
  % fluorescence observed ± SEM in the presence of CMC, relative to the unprotected controls: 32.4 ± 5.9%
[1]; 5 minutes of exposure to ozone
  drop in induced stress relative to the unprotected controls: 67.7%
[1]; 10 min. of contact with ozone (1 ppm)
  % fluorescence observed ± SEM in the presence of CMC, relative to the unprotected controls: 33.7 ± 5.0%
[1]; 20 min. of contact with ozone (1 ppm)
  % fluorescence observed ± SEM in the presence of CMC, relative to the unprotected controls: 46.5 ± 8.5%
[1]; 20 minutes of exposure to ozone
  drop in induced stress relative to the unprotected controls: 53.5%
[1]; human keratinocytes in vitro, ozone exposure
  protective effect against the effect induced by ozone (oxidative stress): highly significant protective effect
[2]
  half-maximal dose that is nontoxic to the cells: 0.5 mg/mL
